This experiment deals with Candida albicans FH 2173. Briefly: Antifungal activity against Candida albicans, bouillon dilution method (microdilution). The format is cell-based. The conditions noted are these: FH2173, growth inhibition by 50%, Mueller Hinton broth, 37° C., 20 hours, absorption at 590 nm. On the procedure:
For the detection of the antifungal activity of rapidly growing, aerobic causative organisms, the bouillon dilution method (microdilution) according to a procedure of the CLSI (Clinical and Laboratory Standards Institute, M7-A7, Vol. 26, No. 2) is used. The IC50 value was determined. This is the concentration of an active substance which is necessary in order to inhibit the growth of the test organism Candida albicans by 50%.
A stock solution of 1000 μg/ml of active substance [for example the compound of the formula (II) or the compound of the formula (IV)] in methanol was prepared. The test strain (Candida albicans FH 2173) was stored at −80° C. The inoculum was prepared from a fresh, liquid preculture. The preculture was prepared from a bead of the material stored at −80° C. and 30 ml of nutrient medium (Sabourad dextrose broth, Difco) and incubated at 37° C. and 180 revolutions per minute for 24 hours. The inoculum is to be adjusted such that after the inoculation of the test container the necessary number of colony-forming units is achieved. For this, the inoculum was adjusted to a value of 10^7 CFU/ml (CFU: colony forming units) by means of a photometer at a wavelength of 590 nm. […] The exact colony count was determined by means of surface culture. […] The microtiter plates were read with the aid of a photometer at a wavelength of 590 nm by measurement of the absorption. […]

In brackets after ≈: the same amount, converted by molar mass.

One may read the IC50 as the concentration that gives 50% inhibition. A lower IC50 goes with inhibition by little substance. `CCC(C)C1C(=O)NC(Cc2cc(Cl)c(O)c(Cl)c2)C(=O)NC(C(C)(C)O)C(=O)OC(c2ccccc2)C(C)/C=C/C=C(\C)C(OC)CC2OC2(C)C(=O)N1C` (centres unmarked) [Compound (II)]: half-maximal inhibition (IC50) required 0.06 µg/mL (≈ 0.0735 µM).

In turn, `CCC(C)C1C(=O)NC(Cc2cc(Cl)c(OC)c(Cl)c2)C(=O)NC(C(C)(C)O)C(=O)OC(c2ccccc2)C(C)/C=C/C=C(\C)C(OC)CC2OC2(C)C(=O)N1C` (centres unmarked) [Compound (IV)] registered an IC50 of 0.41 µg/mL (≈ 0.493 µM).

The values are drawn from patent US8268775B2, “Macrolactone derivatives” (Sanofi, priority 2007, dated 2012).
